Measured values: PubChem BioAssay (NCI)
Several values for one entry are separate records, joined by “and”; a condition that tells them apart may be missing. Identical values can stand only once.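 1) Cells in 96-well plates. 2) Compound, 48 h, 5 concentrations. 3) Linear interpolation between surrounding doses. 4) Unreached endpoint = highest concentration. Abbreviation: GI50, concentration required for 50% inhibition of growth. TGI: total growth inhibition.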

Experiments:
Test in all cases: NCI anticancer screen, dose series, 48 h
XF 498 CNS = test system: XF 498 CNS
MDA-MB-231 breast = test system: MDA-MB-231 breast
SF-268 CNS = test system: SF-268 CNS
SK-MEL-2 melanoma = test system: SK-MEL-2 melanoma
OVCAR-3 ovarian = test system: OVCAR-3 ovarian
M14 melanoma = test system: M14 melanoma
SK-MEL-5 melanoma = test system: SK-MEL-5 melanoma
NCI-H460 lung = test system: NCI-H460 lung
KM20L2 colon = test system: KM20L2 colon
HL-60(TB) leukemia = test system: HL-60(TB) leukemia
SN12C renal = test system: SN12C renal
PC-3 prostate = test system: PC-3 prostate
HOP-62 NSCLC = test system: HOP-62 NSCLC
HS 578T breast = test system: HS 578T breast
DMS 273 small cell lung = test system: DMS 273 small cell lung
RXF 393 renal = test system: RXF 393 renal
M19-MEL melanoma = test system: M19-MEL melanoma
ACHN renal = test system: ACHN renal
SK-OV-3 ovarian = test system: SK-OV-3 ovarian
TK-10 renal = test system: TK-10 renal
SF-295 CNS = test system: SF-295 CNS
MOLT-4 leukemia = test system: MOLT-4 leukemia
UACC-257 melanoma = test system: UACC-257 melanoma
SK-MEL-28 melanoma = test system: SK-MEL-28 melanoma
MDA-MB-435 = test system: MDA-MB-435
RPMI-8226 leukemia = test system: RPMI-8226 leukemia
OVCAR-5 ovarian = test system: OVCAR-5 ovarian
DLD-1 colon = test system: DLD-1 colon
SNB-78 CNS = test system: SNB-78 CNS
DU-145 prostate = test system: DU-145 prostate
LOX IMVI melanoma = test system: LOX IMVI melanoma
HCT-116 colon = test system: HCT-116 colon
OVCAR-8 ovarian = test system: OVCAR-8 ovarian
NCI-H23 lung = test system: NCI-H23 lung
NCI-H522 lung = test system: NCI-H522 lung
SNB-19 CNS = test system: SNB-19 CNS
A498 renal = test system: A498 renal
SW-620 colon = test system: SW-620 colon
NCI-H226 lung = test system: NCI-H226 lung
KM12 colon = test system: KM12 colon
A549 NSCLC = test system: A549 NSCLC
HT29 colon = test system: HT29 colon
DMS 114 small cell lung = test system: DMS 114 small cell lung
BT-549 breast = test system: BT-549 breast
NCI/ADR-RES ovarian = test system: NCI/ADR-RES ovarian
UO-31 renal = test system: UO-31 renal
HOP-92 NSCLC = test system: HOP-92 NSCLC
HOP-18 NSCLC = test system: HOP-18 NSCLC
HCT-15 colon = test system: HCT-15 colon
RXF-631 renal = test system: RXF-631 renal
MDA-N = test system: MDA-N
786-0 renal = test system: 786-0 renal
T-47D breast = test system: T-47D breast
MALME-3M melanoma = test system: MALME-3M melanoma
UACC-62 melanoma = test system: UACC-62 melanoma
HCC-2998 colon = test system: HCC-2998 colon
SF-539 CNS = test system: SF-539 CNS
LXFL 529 NSCLC = test system: LXFL 529 NSCLC
CAKI-1 renal = test system: CAKI-1 renal
U251 CNS = test system: U251 CNS
EKVX NSCLC = test system: EKVX NSCLC
SNB-75 CNS = test system: SNB-75 CNS
MCF7 breast = test system: MCF7 breast
IGROV1 ovarian = test system: IGROV1 ovarian
OVCAR-4 ovarian = test system: OVCAR-4 ovarian
CCRF-CEM leukemia = test system: CCRF-CEM leukemia
SR leukemia = test system: SR leukemia
K-562 leukemia = test system: K-562 leukemia

## O=C1C(Br)=C(Br)C(=O)c2ccccc21
XF 498 CNS
  GI50: 15.1 µM and 2.98 µM
  TGI: 29.7 µM and 9.41 µM
MDA-MB-231 breast
  TGI: 11.6 µM
SF-268 CNS
  GI50: 23.3 µM and 3.27 µM
  TGI: 57.7 µM and 12.9 µM
SK-MEL-2 melanoma
  TGI: 36.2 µM and 29 µM
OVCAR-3 ovarian
  GI50: 17.9 µM and 8.34 µM
  TGI: 32.4 µM and 27.7 µM
M14 melanoma
  TGI: 28.4 µM and 22.6 µM
SK-MEL-5 melanoma
  TGI: 23.3 µM
NCI-H460 lung
  GI50: 32.7 µM and 10.6 µM
  TGI: > 100 µM and 33.9 µM
KM20L2 colon
  TGI: > 100 µM and 32.1 µM
HL-60(TB) leukemia
  TGI: 15.6 µM
SN12C renal
  GI50: 16.4 µM and 5.09 µM
  TGI: 30.2 µM and 17.1 µM
PC-3 prostate
  TGI: 31.7 µM
HOP-62 NSCLC
  TGI: 37.6 µM and 44.4 µM
HS 578T breast
  TGI: > 60.7 µM
DMS 273 small cell lung
  GI50: 49.9 µM and 9.23 µM
  TGI: > 100 µM and 23.5 µM
RXF 393 renal
  GI50: 16.2 µM and 5.85 µM
  TGI: 29.9 µM and 15.6 µM
M19-MEL melanoma
  GI50: 16.1 µM and 6.98 µM
  TGI: 29.8 µM and 21.7 µM
ACHN renal
  GI50: 15.2 µM and 5.76 µM
  TGI: 28.4 µM and 14.2 µM
SK-OV-3 ovarian
  GI50: 16.1 µM and 5.4 µM
  TGI: 31.1 µM and 13.2 µM
TK-10 renal
  TGI: 32.4 µM and 26.6 µM
SF-295 CNS
  GI50: 91.1 µM and 14.6 µM
  TGI: > 100 µM and 28.6 µM
MOLT-4 leukemia
  GI50: 7.01 µM and 1.34 µM
UACC-257 melanoma
  GI50: 18.2 µM and 8.21 µM
  TGI: 32.6 µM and 16.7 µM
SK-MEL-28 melanoma
  GI50: 18.4 µM and 4.98 µM
  TGI: 32.8 µM and 15.6 µM
MDA-MB-435
  TGI: 21.8 µM
RPMI-8226 leukemia
  TGI: 10.4 µM
OVCAR-5 ovarian
  TGI: 41.7 µM and 22.9 µM
DLD-1 colon
  TGI: 35.2 µM and 67.5 µM
SNB-78 CNS
  GI50: 26.5 µM and 7.52 µM
  TGI: 48.9 µM and 18.4 µM
DU-145 prostate
  TGI: 33 µM
LOX IMVI melanoma
  GI50: 16.5 µM and 4.69 µM
  TGI: 31.4 µM and 12.3 µM
HCT-116 colon
  TGI: 31.8 µM and 28.1 µM
OVCAR-8 ovarian
  GI50: 17 µM and 7.06 µM
  TGI: 30.9 µM and 57 µM
NCI-H23 lung
  GI50: 17.2 µM and 6.6 µM
  TGI: 33.5 µM and 17.6 µM
NCI-H522 lung
  GI50: 16.3 µM and 3.77 µM
  TGI: 29.9 µM and 15.5 µM
SNB-19 CNS
  GI50: 18.8 µM and 9.17 µM
  TGI: 37.9 µM and 17.4 µM
A498 renal
  GI50: 48.5 µM and 13.4 µM
  TGI: > 100 µM and 27.1 µM
SW-620 colon
  GI50: 16 µM and 2.28 µM
  TGI: 29.5 µM and 8.64 µM
NCI-H226 lung
  GI50: 15.5 µM and 4.52 µM
  TGI: 31.9 µM and 12.2 µM
KM12 colon
  TGI: 36.9 µM and 33.3 µM
A549 NSCLC
  TGI: 55.8 µM
HT29 colon
  TGI: > 100 µM and 21.8 µM
DMS 114 small cell lung
  GI50: 17.6 µM and 1.91 µM
  TGI: 34.9 µM and 6.91 µM
BT-549 breast
  TGI: 15.3 µM
NCI/ADR-RES ovarian
  TGI: 66.8 µM
UO-31 renal
  GI50: 13.6 µM and 5.55 µM
  TGI: 26.7 µM and 14.7 µM
HOP-92 NSCLC
  GI50: 13.4 µM and 1.73 µM
  TGI: 27 µM and 4.59 µM
HOP-18 NSCLC
  TGI: 35.5 µM
HCT-15 colon
  TGI: 31.4 µM and 45.1 µM
RXF-631 renal
  TGI: 20.1 µM
MDA-N
  TGI: 11.4 µM
786-0 renal
  TGI: 32.3 µM and 23.5 µM
T-47D breast
  TGI: 12.5 µM
MALME-3M melanoma
  GI50: 16.8 µM and 6.59 µM
  TGI: 31 µM and 16 µM
UACC-62 melanoma
  TGI: 31.6 µM and 22.7 µM
HCC-2998 colon
  TGI: 46.3 µM and 34.5 µM
SF-539 CNS
  GI50: 19.4 µM and 2.82 µM
  TGI: 36 µM and 10.6 µM
LXFL 529 NSCLC
  GI50: 19.2 µM and 5.82 µM
  TGI: 34 µM and 11.7 µM
CAKI-1 renal
  TGI: 13.7 µM
U251 CNS
  GI50: 17.5 µM and 2.16 µM
  TGI: 31.3 µM and 4.68 µM
EKVX NSCLC
  GI50: 100 µM and 20 µM
  TGI: > 100 µM and 39.9 µM
SNB-75 CNS
  GI50: 27.2 µM and 3.27 µM
  TGI: 79 µM and 11.1 µM
MCF7 breast
  TGI: > 100 µM
IGROV1 ovarian
  GI50: 16.9 µM and 6.06 µM
  TGI: 45.5 µM and 17.4 µM
OVCAR-4 ovarian
  TGI: 31.4 µM and 33.3 µM
CCRF-CEM leukemia
  GI50: 9.85 µM and 2.25 µM
SR leukemia
  TGI: 9.54 µM
K-562 leukemia
  TGI: > 100 µM
